In publication PMC10893631, “Receptor-based pharmacophore modeling, molecular docking, synthesis and biological evaluation of novel VEGFR-2, FGFR-1, and BRAF multi-kinase inhibitors” (BMC Chemistry, 2024):

Key:
Test in all cases: NCI SRB growth inhibition (single dose 10 µM / five-dose)
Type in all cases: cell-based, human
[1] = tested on: SNB-19
Summary of the method: (§1)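 SRB protein stain of fixed cells; compounds tested at one dose (10 µM) or five serial dilutions (10-fold or ½ log), diluted from DMSO stock. Cells plated 24 h before dosing, with a time-zero plate fixed in TCA. Percent growth derived from Tz, control and test absorbances; TGI taken where Ti = Tz.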

[2] = tested on: HCC-2998
Summary of the method: as §1

[3] = tested on: A549/ATCC
Summary of the method: as §1

[4] = tested on: EKVX
Summary of the method: as §1

[5] = tested on: SW-620
Summary of the method: as §1

[6] = tested on: HCT-15
Summary of the method: as §1

[7] = tested on: OVCAR-8
Summary of the method: as §1

[8] = tested on: NCI-H460
Summary of the method: as §1

[9] = tested on: T-47D
Summary of the method: as §1

[10] = tested on: COLO 205
Summary of the method: as §1

[11] = tested on: MALME-3 M
Summary of the method: as §1

[12] = tested on: HOP-62
Summary of the method: as §1

[13] = tested on: TK-10
Summary of the method: as §1

[14] = tested on: HS 578 T
Summary of the method: as §1

[15] = tested on: MCF7
Summary of the method: as §1

[16] = tested on: OVCAR-5
Summary of the method: as §1

[17] = tested on: HCT-116
Summary of the method: as §1

[18] = tested on: ACHN
Summary of the method: as §1

[19] = tested on: MDA-MB-435
Summary of the method: as §1

[20] = tested on: A498
Summary of the method: as §1

[21] = tested on: SR
Summary of the method: as §1

[22] = tested on: MDA-MB-468
Summary of the method: as §1

[23] = tested on: MOLT-4
Summary of the method: as §1

[24] = tested on: CAKI-1
Summary of the method: as §1

Substance: N'-(2-Hydroxybenzylidene)-2-phenyl-1H-benzo[d]imidazole-5-carbohydrazide [8a]
- GI% ([1]; SNB-19 (CNS cancer), 10 µM): 95.02%
- GI50 ([1]; SNB-19, CNS cancer, five-dose): 4.16 µM
- GI% ([2]; HCC-2998 (Colon cancer), 10 µM): 73.20%
- GI50 ([2]; HCC-2998, Colon cancer, five-dose): 3.91 µM
- GI% ([3]; A549/ATCC (Non-small cell lung cancer), 10 µM): L (GI% > 100)
- GI50 ([3]; A549/ATCC, Non-small cell lung cancer, five-dose): 3.41 µM
- GI% ([4]; EKVX (Non-small cell lung cancer), 10 µM): 96.49%
- GI50 ([4]; EKVX, Non-small cell lung cancer, five-dose): 1.85 µM
- GI% ([5]; SW-620 (Colon cancer), 10 µM): 77.39%
- GI50 ([5]; SW-620, Colon cancer, five-dose): 3.48 µM
- GI% ([6]; HCT-15 (Colon cancer), 10 µM): 94.00%
- GI50 ([6]; HCT-15, Colon cancer, five-dose): 1.07 µM
- GI% ([7]; OVCAR-8 (Ovarian cancer), 10 µM): L (GI% > 100)
- GI50 ([7]; OVCAR-8, Ovarian cancer, five-dose): 2.49 µM
- GI% ([8]; NCI-H460 (Non-small cell lung cancer), 10 µM): L (GI% > 100)
- GI50 ([8]; NCI-H460, Non-small cell lung cancer, five-dose): 2.37 µM
- GI% ([9]; T-47D (Breast cancer), 10 µM): 93.65%
- GI50 ([9]; T-47D, Breast cancer, five-dose): 3.38 µM
- GI% ([10]; COLO 205 (Colon cancer), 10 µM): L (GI% > 100)
- GI50 ([10]; COLO 205, Colon cancer, five-dose): 1.97 µM
- GI% ([11]; MALME-3 M (Melanoma), 10 µM): 99.32%
- GI50 ([11]; MALME-3 M, Melanoma, five-dose): 1.88 µM
- GI% ([12]; HOP-62 (Non-small cell lung cancer), 10 µM): L (GI% > 100)
- GI50 ([12]; HOP-62, Non-small cell lung cancer, five-dose): 1.47 µM
- GI% ([13]; TK-10 (Renal cancer), 10 µM): 65.04%
- GI50 ([13]; TK-10, Renal cancer, five-dose): 4.53 µM
- GI% ([14]; HS 578 T (Breast cancer), 10 µM): L (GI% > 100)
- GI50 ([14]; HS 578 T, Breast cancer, five-dose): 2.49 µM
- GI% ([15]; MCF7 (Breast cancer), 10 µM): 96.94%
- GI50 ([15]; MCF7, Breast cancer, five-dose): 2.63 µM
- GI% ([16]; OVCAR-5 (Ovarian cancer), 10 µM): 77.04%
- GI50 ([16]; OVCAR-5, Ovarian cancer, five-dose): 8.5 µM
- GI% ([17]; HCT-116 (Colon cancer), 10 µM): L (GI% > 100)
- GI50 ([17]; HCT-116, Colon cancer, five-dose): 0.88 µM
- GI% ([18]; ACHN (Renal cancer), 10 µM): L (GI% > 100)
- GI50 ([18]; ACHN, Renal cancer, five-dose): 3.28 µM
- GI% ([19]; MDA-MB-435 (Melanoma), 10 µM): 63.10%
- GI50 ([19]; MDA-MB-435, Melanoma, five-dose): 5.77 µM
- GI% ([20]; A498 (Renal cancer), 10 µM): – (GI% < 5%)
- GI50 ([20]; A498, Renal cancer, five-dose): 16.9 µM
- GI% ([21]; SR (Leukemia), 10 µM): 92.31%
- GI50 ([21]; SR, Leukemia, five-dose): 1.68 µM
- GI% ([22]; MDA-MB-468 (Breast cancer), 10 µM): 99.81%
- GI50 ([22]; MDA-MB-468, Breast cancer, five-dose): 3.45 µM
- GI% ([23]; MOLT-4 (Leukemia), 10 µM): 89.54%
- GI50 ([23]; MOLT-4, Leukemia, five-dose): 1.62 µM
- GI% ([24]; CAKI-1 (Renal cancer), 10 µM): L (GI% > 100)
- GI50 ([24]; CAKI-1, Renal cancer, five-dose): 3.48 µM
